Experimental data: the NIST ThermoML archive (doi:10.1021/acs.jced.8b00176)

Assay: xn = mol fraction of the nth substance listed
Details: 100 kPa, Liquid; for viscosity: Falling or rolling sphere viscometry; for speed of sound: Frequency=3 MHz, Single path-length method; for mass density: Vibrating tube method

CCCCn1cc[n+](C)c1.O=S(=O)([O-])C(F)(F)F [1-butyl-3-methylimidazolium trifluoromethanesulfonate] + CC#N
Details	mass density [kg/m3]	speed of sound [m/s]	viscosity [mPa·s]
298.15 K, x1 = 0.0911	958.58	1306.2	0.94
298.15 K, x1 = 0.2023	1074.82	1330.8	1.74
298.15 K, x1 = 0.3029	1137.12	1347.2	4.03
298.15 K, x1 = 0.3998	1179	1359.4	6.63
298.15 K, x1 = 0.4994	1211.16	1368.6	11.09
298.15 K, x1 = 0.5953	1234.14	1375.6	19.01
298.15 K, x1 = 0.7029	1255.85	1382.5	29.57
298.15 K, x1 = 0.8009	1271.78	1386.6	40.36
298.15 K, x1 = 0.9012	1285.59	1389.8	56.57
298.15 K, x1 = 1	1297.46	1393.2	82.38
303.15 K, x1 = 0.0911	954.576	1289.2	0.88
303.15 K, x1 = 0.2023	1070.41	1315.6	1.61
303.15 K, x1 = 0.3029	1132.76	1333	3.64
303.15 K, x1 = 0.3998	1174.94	1346.1	5.9
303.15 K, x1 = 0.4994	1207.1	1355.7	9.65
303.15 K, x1 = 0.5953	1230.08	1363.1	16.22
303.15 K, x1 = 0.7029	1251.97	1370.6	24.73
303.15 K, x1 = 0.8009	1267.97	1374.9	33.14
303.15 K, x1 = 0.9012	1281.58	1378.4	45.89
303.15 K, x1 = 1	1293.46	1382.8	66.69
308.15 K, x1 = 0.0911	949.838	1272.1	0.83
308.15 K, x1 = 0.2023	1066.01	1300.6	1.58
308.15 K, x1 = 0.3029	1128.52	1318.8	3.3
308.15 K, x1 = 0.3998	1170.95	1332.8	5.26
308.15 K, x1 = 0.4994	1202.79	1343	8.46
308.15 K, x1 = 0.5953	1225.98	1350.7	13.86
308.15 K, x1 = 0.7029	1247.9	1358.8	20.9
308.15 K, x1 = 0.8009	1264.18	1363.4	27.82
308.15 K, x1 = 0.9012	1277.73	1367	37.7
308.15 K, x1 = 1	1289.47	1371.7	52.86
313.15 K, x1 = 0.0911	944.8	1255.1	0.79
313.15 K, x1 = 0.2023	1061.34	1285.5	1.48
313.15 K, x1 = 0.3029	1124.17	1304.8	3.01
313.15 K, x1 = 0.3998	1166.71	1319.6	4.73
313.15 K, x1 = 0.4994	1198.75	1330.3	7.48
313.15 K, x1 = 0.5953	1221.91	1338.4	12.06
313.15 K, x1 = 0.7029	1243.95	1347	17.91
313.15 K, x1 = 0.8009	1260.12	1352	23.51
313.15 K, x1 = 0.9012	1273.98	1355.8	31.45
313.15 K, x1 = 1	1285.47	1360.7	43.67
318.15 K, x1 = 0.0911	939.614	1238.2	0.75
318.15 K, x1 = 0.2023	1057.1	1270.6	1.4
318.15 K, x1 = 0.3029	1120.05	1290.8	2.75
318.15 K, x1 = 0.3998	1162.77	1306.4	4.26
318.15 K, x1 = 0.4994	1194.47	1317.7	6.65
318.15 K, x1 = 0.5953	1217.75	1326.2	10.56
318.15 K, x1 = 0.7029	1240.12	1335.4	15.52
318.15 K, x1 = 0.8009	1256.17	1340.7	20.16
318.15 K, x1 = 0.9012	1270.02	1344.7	26.58
318.15 K, x1 = 1	1281.47	1349.9	36.29
323.15 K, x1 = 0.0911	934.671	1221.3	0.71
323.15 K, x1 = 0.2023	1052.93	1255.8	1.32
323.15 K, x1 = 0.3029	1115.71	1276.9	2.54
323.15 K, x1 = 0.3998	1158.5	1293.4	3.88
323.15 K, x1 = 0.4994	1190.69	1305.2	5.95
323.15 K, x1 = 0.5953	1213.78	1314	9.33
323.15 K, x1 = 0.7029	1236.14	1323.8	13.54
323.15 K, x1 = 0.8009	1252.29	1329.5	17.4
323.15 K, x1 = 0.9012	1266.17	1333.7	22.66
323.15 K, x1 = 1	1277.48	1338.8	30.57

CC#N [acetonitrile] + CN(C)C=O
Details	mass density [kg/m3]	speed of sound [m/s]	viscosity [mPa·s]
298.15 K, x2 = 0	776.714	1278.5	0.34
298.15 K, x2 = 0.0989	802.565	1302.5	0.4
298.15 K, x2 = 0.1916	826.376	1322	0.44
298.15 K, x2 = 0.2925	844.614	1339.6	0.48
298.15 K, x2 = 0.3932	865.725	1361.6	0.54
298.15 K, x2 = 0.5029	880.889	1377.5	0.61
298.15 K, x2 = 0.6002	895.421	1395.9	0.65
298.15 K, x2 = 0.6931	907.546	1411.4	0.69
298.15 K, x2 = 0.7926	922.026	1429.2	0.75
298.15 K, x2 = 0.8996	932.676	1442.8	0.79
303.15 K, x2 = 0	771.289	1258.4	0.32
303.15 K, x2 = 0.0989	797.299	1282.7	0.39
303.15 K, x2 = 0.1916	821.229	1302.3	0.42
303.15 K, x2 = 0.2925	839.435	1320.1	0.46
303.15 K, x2 = 0.3932	860.639	1342.2	0.51
303.15 K, x2 = 0.5029	875.938	1358.1	0.57
303.15 K, x2 = 0.6002	890.518	1376.6	0.61
303.15 K, x2 = 0.6931	902.756	1392	0.65
303.15 K, x2 = 0.7926	917.22	1409.9	0.7
303.15 K, x2 = 0.8996	927.901	1423.3	0.75
308.15 K, x2 = 0	765.833	1238.2	0.31
308.15 K, x2 = 0.0989	792.024	1262.9	0.37
308.15 K, x2 = 0.1916	816.008	1282.5	0.4
308.15 K, x2 = 0.2925	834.219	1300.5	0.44
308.15 K, x2 = 0.3932	855.56	1322.6	0.49
308.15 K, x2 = 0.5029	870.924	1338.6	0.54
308.15 K, x2 = 0.6002	885.607	1357.2	0.58
308.15 K, x2 = 0.6931	897.887	1372.6	0.61
308.15 K, x2 = 0.7926	912.402	1390.5	0.66
308.15 K, x2 = 0.8996	923.153	1404	0.71
313.15 K, x2 = 0	760.339	1218	0.3
313.15 K, x2 = 0.0989	786.729	1243	0.35
313.15 K, x2 = 0.1916	810.757	1262.8	0.39
313.15 K, x2 = 0.2925	829.087	1280.9	0.42
313.15 K, x2 = 0.3932	850.487	1303.2	0.46
313.15 K, x2 = 0.5029	865.854	1319.2	0.51
313.15 K, x2 = 0.6002	880.698	1337.9	0.55
313.15 K, x2 = 0.6931	893.049	1353.3	0.58
313.15 K, x2 = 0.7926	907.663	1371.3	0.63
313.15 K, x2 = 0.8996	918.366	1384.7	0.69
318.15 K, x2 = 0	754.815	1197.9	0.29
318.15 K, x2 = 0.0989	781.363	1223.3	0.33
318.15 K, x2 = 0.1916	805.527	1243.1	0.37
318.15 K, x2 = 0.2925	823.852	1261.3	0.4
318.15 K, x2 = 0.3932	845.354	1283.7	0.44
318.15 K, x2 = 0.5029	860.76	1299.9	0.49
318.15 K, x2 = 0.6002	875.703	1318.6	0.52
318.15 K, x2 = 0.6931	888.143	1334	0.55
318.15 K, x2 = 0.7926	902.79	1352.1	0.59
318.15 K, x2 = 0.8996	913.57	1365.5	0.63
323.15 K, x2 = 0	749.253	1177.8	0.28
323.15 K, x2 = 0.0989	776.028	1203.5	0.32
323.15 K, x2 = 0.1916	800.222	1223.4	0.35
323.15 K, x2 = 0.2925	818.614	1241.9	0.38
323.15 K, x2 = 0.3932	840.213	1264.4	0.42
323.15 K, x2 = 0.5029	855.738	1280.6	0.46
323.15 K, x2 = 0.6002	870.738	1299.4	0.5
323.15 K, x2 = 0.6931	883.209	1314.8	0.53
323.15 K, x2 = 0.7926	897.991	1332.9	0.56
323.15 K, x2 = 0.8996	908.741	1346.3	0.6
